Test results from EP4620959A1, “CYCLIC COMPOUNDS USED AS MULTI-TARGET KINASE INHIBITORS AND PREPARATION METHOD THEREFOR” (Shanghai Institute of Organic Chemistry, Chinese Academy of …, priority 2022, dated 2024).
Blank lines part the entries; values can stand above or below the compound they belong to.

Key:
[1] = target: LRRK2 G2019S (Homo sapiens, UniProt Q5S007, G2019S); assay: Kinase activity inhibition assay (ADP-Glo), LRRK2 G2019S; type: biochemical; conditions: for inhibition at 0.1 µM: read-out: LRRK2 G2019S inhibition rate at 100 nM, ATP 100 µM, compound at 100 nM
Method: (§1) The kinase activity inhibition assay was performed by ICE Bioscience (Beijing) using ADP-Glo and HTRF methods.
(§2) Table 1.1-1 ADP-Glo Buffer
(§3) Table 1.2-1 ADP-Glo Kinase and Substrate Formulation
(§4) SD is the standard error, and AVE is the average value. Table 2-1 LRRK2 Activity Inhibition Test Results

[2] = target: LRRK2 wt (Homo sapiens, UniProt Q5S007); assay: Kinase activity inhibition assay (ADP-Glo), LRRK2 wt; type: biochemical; conditions: for inhibition at 0.1 µM: read-out: LRRK2 wt inhibition rate at 100 nM, ATP 20 µM, compound at 100 nM
Method: as §1, §2, §3, §4

[3] = target: FGFR4 N535K (Homo sapiens, UniProt P22455, N535K); assay: Kinase activity inhibition assay (HTRF), FGFR4 N535K; type: biochemical; conditions: ATP 100 µM
Method: as §1
(§5) Table 1.2-2 HTRF Kinase and Substrate Formulation
(§6) • 1) 2×ATP/substrate solution and 2×kinase/metal ion solution were prepared using kinase reaction buffer; • 2) 20 nL (ADP-GLo) or 40 nL (HTRF) of compound dilution was transferred using Echo 655 onto a 384-well assay plate; after centrifugation, 2 µL of 2×kinase and metal ion solution were added to the 384-well assay plate, centrifuged at 1000 rpm for 1 min, and incubated at 25°C for 10 min; • 3) 2 µL of 2×substrate and ATP solution were added to the 384-well assay plate, centrifuged at 1000 rpm for 1 min, and incubated at 25°C for 60 min. • 4) 4 µL of ADP-Glo was transferred to the 384-well assay plate, entrifuged at 1000 rpm for 1 min, and incubated at 25°C for 40 min. • 5) 8 µL of detection solution was transferred to the 384-well assay plate, centrifuged at 1000 rpm for 1 min, and incubated at 25°C for 40 min. • 6) Luminescence signals was read using a multifunctional microplate reader.
as §4

[4] = target: FGFR4 (Homo sapiens, UniProt P22455); assay: Kinase activity inhibition assay (HTRF), FGFR4; type: biochemical; conditions: ATP 50 µM
Method: as §1, §5, §6, §4

[5] = target: KDR (Homo sapiens, UniProt P35968); assay: Kinase activity inhibition assay (HTRF), KDR; type: biochemical; conditions: ATP 4 µM
Method: as §1, §5, §4

[6] = target: FGFR2 V564F (Homo sapiens, UniProt P21802, V564F); assay: Kinase activity inhibition assay (HTRF), FGFR2 V564F; type: biochemical; conditions: ATP 15 µM
Method: as §1, §5, §6, §4

[7] = target: FLT3 (Homo sapiens, UniProt P36888); assay: Kinase activity inhibition assay (HTRF), FLT3; type: biochemical; conditions: ATP 2 µM
Method: as §1, §5, §6, §4

[8] = target: TYRO3 (Homo sapiens, UniProt Q06418); assay: Kinase activity inhibition assay (HTRF), TYRO3; type: biochemical; conditions: ATP 0.5 µM
Method: as §1, §5, §4

[9] = target: FGFR4 V550M (Homo sapiens, UniProt P22455, V550M); assay: Kinase activity inhibition assay (HTRF), FGFR4 V550M; type: biochemical; conditions: ATP 60 µM
Method: as §1, §5, §4

[10] = target: RET V804L (Homo sapiens, UniProt P07949, V804L); assay: Kinase activity inhibition assay (HTRF), RET V804L; type: biochemical; conditions: ATP 5 µM
Method: as §1, §5, §6, §4

[11] = target: FGFR2 N549H (Homo sapiens, UniProt P21802, N549H); assay: Kinase activity inhibition assay (HTRF), FGFR2 N549H; type: biochemical; conditions: ATP 9 µM
Method: as §1, §5, §4

[12] = target: FGFR1 (Homo sapiens, UniProt P11362); assay: Kinase activity inhibition assay (HTRF), FGFR1; type: biochemical; conditions: ATP 40 µM
Method: as §1, §5, §6, §4

[13] = target: FLT4 (Homo sapiens, UniProt P35916); assay: Kinase activity inhibition assay (HTRF), FLT4; type: biochemical; conditions: ATP 32 µM
Method: as §1, §5, §6, §4

[14] = target: FGFR4 V550L (Homo sapiens, UniProt P22455, V550L); assay: Kinase activity inhibition assay (ADP-Glo), FGFR4 V550L; type: biochemical; conditions: ATP 20 µM
Method: as §1, §2, §3, §4

[15] = target: FGFR2 (Homo sapiens, UniProt P21802); assay: Kinase activity inhibition assay (HTRF), FGFR2; type: biochemical; conditions: ATP 20 µM
Method: as §1, §5, §6, §4

[16] = Oral pharmacokinetic study in rats; conditions: rat, in vivo, 3 mg/kg, male SD rats, oral gavage, dose 3mpk, 1% MC
Method: Drug preparation: 1% MC was added to the compound, ground, and shaken uniformly. Samples were collected at 5 min, 15 min, 30 min, 1 h, 2 h, 4 h, and 8 h post-dose, followed by analysis using liquid chromatography-tandem mass spectrometry (LC-MS/MS). Table 3 PK Data of Selected Compounds

[17] = target: FGFR3 V555L (Homo sapiens, UniProt P22607, V555L); assay: Kinase activity inhibition assay (HTRF), FGFR3 V555L; type: biochemical; conditions: ATP 20 µM
Method: as §1, §5, §6, §4

[18] = target: DYRK2 (Homo sapiens, UniProt Q92630); assay: Kinase activity inhibition assay (ADP-Glo), DYRK2; type: biochemical; conditions: ATP 5 µM
Method: as §1, §2, §3, §4

[19] = target: FLT1 (Homo sapiens, UniProt P17948); assay: Kinase activity inhibition assay (ADP-Glo), FLT1; type: biochemical; conditions: ATP 50 µM
Method: as §1, §2, §3, §6, §4

[20] = target: FGFR3 V555M (Homo sapiens, UniProt P22607, V555M); assay: Kinase activity inhibition assay (HTRF), FGFR3 V555M; type: biochemical; conditions: ATP 20 µM
Method: as §1, §5, §6, §4

[21] = target: FGFR2 V564I (Homo sapiens, UniProt P21802, V564I); assay: Kinase activity inhibition assay (HTRF), FGFR2 V564I; type: biochemical; conditions: ATP 20 µM
Method: as §1, §5, §6, §4

[22] = target: FGFR3 K650M (Homo sapiens, UniProt P22607, K650M); assay: Kinase activity inhibition assay (HTRF), FGFR3 K650M; type: biochemical; conditions: ATP 12 µM
Method: as §1, §5, §4

[23] = target: FGFR3 (Homo sapiens, UniProt P22607); assay: Kinase activity inhibition assay (HTRF), FGFR3; type: biochemical; conditions: ATP 50 µM
Method: as §1, §5, §6, §4

[24] = target: FGFR1 V561M (Homo sapiens, UniProt P11362, V561M); assay: Kinase activity inhibition assay (HTRF), FGFR1 V561M; type: biochemical; conditions: ATP 20 µM
Method: as §1, §5, §6, §4

Sequence of LRRK2 wt (Q5S007 whole entry): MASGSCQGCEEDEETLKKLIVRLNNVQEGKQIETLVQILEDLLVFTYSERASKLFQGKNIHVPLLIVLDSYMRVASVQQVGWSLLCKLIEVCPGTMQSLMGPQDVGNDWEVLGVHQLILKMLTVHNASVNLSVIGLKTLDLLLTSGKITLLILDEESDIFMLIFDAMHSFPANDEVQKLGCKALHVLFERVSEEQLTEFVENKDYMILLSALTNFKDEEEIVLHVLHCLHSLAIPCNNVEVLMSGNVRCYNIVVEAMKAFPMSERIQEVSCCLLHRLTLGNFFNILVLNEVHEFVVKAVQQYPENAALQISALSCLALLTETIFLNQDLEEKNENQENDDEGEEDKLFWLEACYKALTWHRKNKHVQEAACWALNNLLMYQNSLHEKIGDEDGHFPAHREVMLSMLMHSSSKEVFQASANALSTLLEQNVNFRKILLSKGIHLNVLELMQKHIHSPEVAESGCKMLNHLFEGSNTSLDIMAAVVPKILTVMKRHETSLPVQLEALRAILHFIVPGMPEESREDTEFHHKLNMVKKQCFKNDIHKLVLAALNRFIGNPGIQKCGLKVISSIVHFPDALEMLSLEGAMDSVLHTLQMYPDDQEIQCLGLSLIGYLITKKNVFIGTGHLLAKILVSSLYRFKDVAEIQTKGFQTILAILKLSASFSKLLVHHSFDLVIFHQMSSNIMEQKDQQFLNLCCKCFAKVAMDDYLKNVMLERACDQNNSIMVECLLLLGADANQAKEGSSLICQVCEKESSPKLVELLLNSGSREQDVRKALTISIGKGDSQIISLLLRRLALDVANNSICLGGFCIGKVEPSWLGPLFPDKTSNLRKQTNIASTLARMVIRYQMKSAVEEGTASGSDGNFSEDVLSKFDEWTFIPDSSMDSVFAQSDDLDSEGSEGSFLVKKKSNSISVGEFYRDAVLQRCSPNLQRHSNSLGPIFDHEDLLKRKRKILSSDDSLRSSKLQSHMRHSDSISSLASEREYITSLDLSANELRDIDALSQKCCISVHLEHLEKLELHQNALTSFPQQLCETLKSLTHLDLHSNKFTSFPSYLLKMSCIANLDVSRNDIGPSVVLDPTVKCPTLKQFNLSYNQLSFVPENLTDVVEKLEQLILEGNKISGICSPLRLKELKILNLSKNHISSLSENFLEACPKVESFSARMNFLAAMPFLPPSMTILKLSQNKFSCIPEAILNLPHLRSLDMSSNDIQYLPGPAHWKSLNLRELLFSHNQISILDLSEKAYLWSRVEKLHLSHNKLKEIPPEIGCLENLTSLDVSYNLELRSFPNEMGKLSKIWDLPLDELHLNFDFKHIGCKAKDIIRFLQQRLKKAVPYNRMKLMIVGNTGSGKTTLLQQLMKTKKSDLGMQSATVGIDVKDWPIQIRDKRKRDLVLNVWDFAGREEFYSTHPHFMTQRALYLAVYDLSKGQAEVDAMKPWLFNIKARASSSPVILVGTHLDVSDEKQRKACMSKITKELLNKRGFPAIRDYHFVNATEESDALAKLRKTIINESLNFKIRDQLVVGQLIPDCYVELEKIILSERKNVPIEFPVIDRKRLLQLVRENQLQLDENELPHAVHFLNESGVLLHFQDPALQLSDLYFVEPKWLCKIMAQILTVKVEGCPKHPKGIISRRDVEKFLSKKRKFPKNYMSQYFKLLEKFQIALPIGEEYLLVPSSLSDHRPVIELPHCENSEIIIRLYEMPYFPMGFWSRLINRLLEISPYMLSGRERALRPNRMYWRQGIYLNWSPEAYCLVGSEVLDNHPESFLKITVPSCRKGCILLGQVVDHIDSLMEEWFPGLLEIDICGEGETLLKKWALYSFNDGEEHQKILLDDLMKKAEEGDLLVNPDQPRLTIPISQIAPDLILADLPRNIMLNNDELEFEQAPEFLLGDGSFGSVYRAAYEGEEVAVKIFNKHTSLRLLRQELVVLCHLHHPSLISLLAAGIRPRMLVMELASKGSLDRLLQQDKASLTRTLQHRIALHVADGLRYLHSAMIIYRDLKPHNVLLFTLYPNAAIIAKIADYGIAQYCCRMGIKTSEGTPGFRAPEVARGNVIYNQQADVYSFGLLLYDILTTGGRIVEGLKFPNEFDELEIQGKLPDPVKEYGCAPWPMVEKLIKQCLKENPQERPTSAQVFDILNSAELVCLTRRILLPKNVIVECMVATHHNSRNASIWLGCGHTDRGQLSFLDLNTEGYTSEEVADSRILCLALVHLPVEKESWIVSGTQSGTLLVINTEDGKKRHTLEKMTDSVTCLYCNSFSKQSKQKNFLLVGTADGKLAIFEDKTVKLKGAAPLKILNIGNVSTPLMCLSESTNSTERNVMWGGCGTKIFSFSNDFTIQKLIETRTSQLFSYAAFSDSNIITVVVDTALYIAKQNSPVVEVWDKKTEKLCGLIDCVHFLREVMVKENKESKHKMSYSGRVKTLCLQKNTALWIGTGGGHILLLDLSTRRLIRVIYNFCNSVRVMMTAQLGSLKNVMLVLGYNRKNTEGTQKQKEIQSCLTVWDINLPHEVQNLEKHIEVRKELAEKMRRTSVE
Sequence of LRRK2 G2019S (Q5S007 whole entry G2019S): as the sequence (Q5S007 whole entry) above, with G2019S counted along it
Sequence of FGFR4 N535K (P22455 22-802 N535K): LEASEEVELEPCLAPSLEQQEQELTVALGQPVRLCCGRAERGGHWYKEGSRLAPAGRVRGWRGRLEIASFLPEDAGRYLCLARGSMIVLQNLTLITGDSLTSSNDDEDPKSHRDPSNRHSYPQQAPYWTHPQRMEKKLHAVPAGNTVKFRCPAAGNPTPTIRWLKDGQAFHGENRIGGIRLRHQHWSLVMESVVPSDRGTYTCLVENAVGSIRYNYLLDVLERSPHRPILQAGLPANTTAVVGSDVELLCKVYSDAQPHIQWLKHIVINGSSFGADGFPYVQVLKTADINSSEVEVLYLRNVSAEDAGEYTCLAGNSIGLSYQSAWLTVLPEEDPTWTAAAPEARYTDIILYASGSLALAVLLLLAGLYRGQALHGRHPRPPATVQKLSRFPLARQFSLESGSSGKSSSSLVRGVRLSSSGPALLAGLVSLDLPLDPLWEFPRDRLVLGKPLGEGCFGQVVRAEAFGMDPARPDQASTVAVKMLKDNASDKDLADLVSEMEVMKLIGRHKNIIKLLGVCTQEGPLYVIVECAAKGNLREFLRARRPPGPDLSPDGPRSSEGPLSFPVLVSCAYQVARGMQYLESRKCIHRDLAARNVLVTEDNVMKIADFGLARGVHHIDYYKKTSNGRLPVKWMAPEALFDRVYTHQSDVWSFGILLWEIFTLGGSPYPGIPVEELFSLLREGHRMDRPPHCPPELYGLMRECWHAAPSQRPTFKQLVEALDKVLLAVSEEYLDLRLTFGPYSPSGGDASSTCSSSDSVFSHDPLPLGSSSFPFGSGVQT
Sequence of FGFR4 (P22455 22-802): as the sequence (P22455 22-802 N535K) above, with K514N counted along it
Sequence of DYRK2 (Q92630 whole entry): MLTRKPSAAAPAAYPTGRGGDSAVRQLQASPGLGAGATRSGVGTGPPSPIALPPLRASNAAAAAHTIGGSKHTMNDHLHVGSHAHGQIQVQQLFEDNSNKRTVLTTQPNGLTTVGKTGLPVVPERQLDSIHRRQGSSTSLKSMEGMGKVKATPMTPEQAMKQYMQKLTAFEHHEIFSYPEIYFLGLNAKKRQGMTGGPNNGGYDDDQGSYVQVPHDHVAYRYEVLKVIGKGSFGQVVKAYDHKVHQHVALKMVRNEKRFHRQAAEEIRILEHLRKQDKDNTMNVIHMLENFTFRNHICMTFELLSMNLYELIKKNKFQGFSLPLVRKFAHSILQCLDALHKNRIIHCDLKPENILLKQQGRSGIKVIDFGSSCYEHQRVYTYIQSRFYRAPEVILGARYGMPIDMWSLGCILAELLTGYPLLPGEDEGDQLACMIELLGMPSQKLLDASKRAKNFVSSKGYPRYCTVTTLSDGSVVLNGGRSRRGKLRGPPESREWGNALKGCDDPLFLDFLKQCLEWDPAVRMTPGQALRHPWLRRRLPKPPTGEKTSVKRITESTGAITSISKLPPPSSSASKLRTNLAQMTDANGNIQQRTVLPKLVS
Sequence of FGFR3 V555M (P22607 23-806 V555M): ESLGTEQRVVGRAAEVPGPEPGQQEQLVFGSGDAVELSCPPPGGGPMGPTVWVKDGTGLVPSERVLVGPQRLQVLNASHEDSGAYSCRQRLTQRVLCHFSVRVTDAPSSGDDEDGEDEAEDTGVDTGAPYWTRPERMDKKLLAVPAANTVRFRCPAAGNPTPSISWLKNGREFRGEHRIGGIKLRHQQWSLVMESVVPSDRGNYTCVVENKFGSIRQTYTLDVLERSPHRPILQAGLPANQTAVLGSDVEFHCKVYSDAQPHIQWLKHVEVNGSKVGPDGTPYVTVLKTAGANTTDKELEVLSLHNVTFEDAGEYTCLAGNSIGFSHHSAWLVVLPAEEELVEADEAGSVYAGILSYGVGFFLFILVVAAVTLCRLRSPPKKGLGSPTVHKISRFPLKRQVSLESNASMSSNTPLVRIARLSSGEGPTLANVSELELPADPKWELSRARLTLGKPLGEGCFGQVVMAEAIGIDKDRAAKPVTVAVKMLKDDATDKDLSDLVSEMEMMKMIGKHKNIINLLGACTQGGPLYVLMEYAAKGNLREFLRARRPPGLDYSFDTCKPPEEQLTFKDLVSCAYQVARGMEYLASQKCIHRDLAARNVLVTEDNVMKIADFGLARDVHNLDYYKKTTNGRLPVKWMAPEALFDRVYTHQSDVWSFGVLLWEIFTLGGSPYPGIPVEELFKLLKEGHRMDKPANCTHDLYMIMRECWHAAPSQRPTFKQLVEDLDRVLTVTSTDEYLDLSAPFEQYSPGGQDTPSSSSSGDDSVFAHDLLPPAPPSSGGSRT
Sequence of FGFR4 V550M (P22455 22-802 V550M): as the sequence (P22455 22-802 N535K) above, with K514N, V529M counted along it
Sequence of FGFR3 K650M (P22607 23-806 K650M): as the sequence (P22607 23-806 V555M) above, with M533V, K628M counted along it
Sequence of FGFR4 V550L (P22455 22-802 V550L): as the sequence (P22455 22-802 N535K) above, with K514N, V529L counted along it
Sequence of FGFR3 (P22607 23-806): as the sequence (P22607 23-806 V555M) above, with M533V counted along it
Sequence of FGFR3 V555L (P22607 23-806 V555L): as the sequence (P22607 23-806 V555M) above, with M533L counted along it

inhibition at 0.1 µM [1]: 92%
inhibition at 0.1 µM [2]: 94%
Structure (SMILES): CN1CCCNc2nc(ncc2C(F)(F)F)Nc2cn(nc2C2CC2)C2CC2C1=O (racemic) [Example T-10, (1^1R,1^2S,2^1R,E)-2^3-Cyclopropyl-9-methyl-4^5-(trifluoromethyl)-2^1H-3,5,9-triaza-4(2,4)-pyrimidina-2(1,4)-pyrazola-1(1,2)-cyclopropacyclodecan-10-one]

inhibition at 0.1 µM [1]: 90%
inhibition at 0.1 µM [2]: 89%
Structure (SMILES): O=C1NCCCNc2nc(ncc2C(F)(F)F)Nc2cn(nc2C2CC2)C2CC12 (racemic) [Example T-11, (1^1R,1^2R,2^1S,E)-2^3-Cyclopropyl-4^5-(trifluoromethyl)-2^1H-3,5,9-triaza-4(2,4)-pyrimidina-2(1,4)-pyrazola-1(1,2)-cyclopropacyclodecan-10-one]

IC50 [3]: 42.5 nM
IC50 [4]: 2.98 nM
Structure (SMILES): C=CC(=O)N[C@H]1CCOC[C@H]1Nc1ncc2cc(-c3c(Cl)c(OC)cc(OC)c3Cl)ccc2n1 [BLU554]

Structure (SMILES): CNc1nc(Nc2cn(C(C)(C)C#N)nc2C)ncc1C(F)(F)F [DNL-201]
IC50 ([1]; ATP 100 µM): 2.88 nM
IC50 ([2]; ATP 20 µM): 1.27 nM

IC50 [5]: 18.9 nM
IC50 [6]: 8.22 nM
IC50 [7]: 370 nM
IC50 [8]: 278 nM
IC50 [9]: 126 nM
IC50 [10]: 175 nM
IC50 [11]: 16.4 nM
IC50 [12]: 135 nM
IC50 [13]: 65.1 nM
IC50 [14]: 67.4 nM
IC50 [15]: 21.8 nM
Cmax [16]: 754 ng/mL
Tmax [16]: 1 h
half-life [16]: 2.3 h
AUC(0-t) at 8 h ([16]; read-out: AUC0-8): 3820 ng·h/mL
IC50 [3]: 609 nM
IC50 [17]: 5.09 nM
IC50 [18]: 248 nM
IC50 [19]: 15.2 nM
IC50 [20]: 12.7 nM
IC50 [21]: 76.1 nM
IC50 [4]: 32.9 nM
IC50 [22]: 9.1 nM
IC50 [23]: 50.2 nM
IC50 [24]: 26.7 nM
Structure (SMILES): Cc1nn2cc1Nc1ncc(C(F)(F)F)c(n1)NCCCNC(=O)C2(C)C [Example T-1, (E)-3^3,4,4-Trimethyl-15-(trifluoromethyl)-3^1H-2,6,10-triaza-1(2,4)-pyrimidina-3(4,1)-pyrazolacyclodecan-5-one]

inhibition at 0.1 µM [1]: 88%
inhibition at 0.1 µM [2]: 92%
Structure (SMILES): Cc1nn2cc1Nc1ncc3c(Cl)cn(c3n1)CCCNC(=O)C2(C)C [Example T-6, (E)-1^5-Chloro-3^3,4,4-trimethyl-1^7H,3^1H-2,6-diaza-1(2,7)-pyrrolo[2,3-d]pyrimidine-3(4,1)-pyrazolacyclononan-5-one]

inhibition at 0.1 µM [1]: 4.3%
inhibition at 0.3 µM ([2]; read-out: LRRK2 wt inhibition rate @300 nM, ATP 20 µM, compound at 300 nM): 7%
Structure (SMILES): Cc1nn2cc1Nc1ncc3c(Cl)cn(c3n1)CCCN(C)C(=O)C2(C)C [Example T-7, (E)-1^5-Chloro-3^3,4,4,6-tetramethyl-1^7H,3^1H-2,6-diaza-1(2,7)-pyrrolo[2,3-d]pyrimidine-3(4,1)-pyrazolacyclononan-5-one]
